US20160185735A1, “FATTY ACID ANALOGS AND THEIR USE” (UNIVERSITY OF PITTSBURGH - OF THE COMMONWEALTH SYSTEM OF …, priority 2013, published 2016)
Values joined by “and” are separate entries in the source; they are usually repeats but may differ in a detail not shown here. Identical values can stand only once.

How the values were obtained:
PCa cells = conditions: cited from earlier work
[1] = system: β-oxidation in heart tissue; experiment: Folch-type extraction of 18F signal in heart tissue (oxidized vs unoxidized analog); format: in vivo, mice (ICR strain)
Description: FIGS. 9-10 are graphs showing the distribution of ^18F signal in heart tissue taken from fasted mice (ICR strain) administered the ^18F-labeled oleate analog (compound Va). Folch-type extraction was used to separate “Organic” (unoxidized analog) from “Pellets” and “Aqueous” (oxidized fatty acid metabolites).

[2] = Tissue biodistribution of 18F-labeled tracers postinjection; format: in vivo, mice (ICR strain); conditions: for background muscle uptake: 0.5 and 2 hours postinjection
Method: FIGS. 11 and 12 are graphs showing biodistribution of ^18F-labeled FTO (“FTO,” left bar, Compound I) and the ^18F-labeled oleate analog (“clicked FTO,” right bar, compound Va) at 0.5 hours (FIG. 11) and 2 hours (FIG. 12) postinjection into mice (ICR strain). Similar to ^18F-FTO, the ^18F-labeled oleate analog has low background muscle uptake at 0.5 and 2 hours postinjection.
FIG. 14 is a table showing tissue biodistribution of ^18F-labeled-Oleate analog (compound Va) in mice (ICR strain).

[3] = system: β-oxidation (myocardial uptake); experiment: Blockage of β-oxidation / myocardial uptake with etomoxir; format: in vivo, mice
Description: FIG. 13 is a graph showing the blockage of β-oxidation of ^18F-labeled FTO (“FTO,” left bar, Compound I) and the ^18F-labeled oleate analog (“clicked FTO,” right bar, compound Va) with etomoxir.

PC3 xenografts = experiment: Small animal PET/CT imaging of tracer uptake in PC3 xenografts; format: in vivo, mice; conditions: 2 hours postinjection, listed as 18F-clicked-FTO
Method: Small animal PET/CT imaging was performed as previously described (Sprague et al., Clin. Cancer. Res. 2004, 10 (24), 8674-8682). Briefly, the ^18F-clicked palmitate or ^18F-clicked oleate analog (3.7 MBq) was injected via tail vein and the mouse was imaged at 2 hours postinjection. Static imaging was performed on an Inveon PET/CT scanner (Constantinescu et al., Phys. Med. Biol., 54, 2885-2899, 2009; Kemp et al., Phys. Med. Biol., 54, 2359-2376, 2009) with 10 min PET scanning followed by a 5 min CT. Inveon Research Workplace (IRW) from Siemens Healthcare Global was used for co-registration of PET/CT images and quantification of regions of interest (ROI). PET/CT images were reconstructed with maximum a posteriori (MAP), 3D ordered-subset expectation maximization (OSEM3D), 2D ordered-subset expectation maximization (OSEM2D), and filtered back projection (2DFBP). Standard uptake values (SUV) were generated by measuring ROI from PET/CT images and calculated with the formula: SUV=[nCi/ml]×[animal weight (g)]/injected dose [nCi]. FDG was injected intraperitoneally 36 hours pre-injection. 2-DG was injected intraperitoneally 4 hours pre-injection. […]

[4] = system: Ehrlich ascites tumor cells; conditions: injected directly into the peritoneal fluid; cited from earlier work
PC3 cells = experiment: Post-fix click fluorescence microscopy of alkyne fatty acid uptake; format: cell-based; conditions: fixed, permeated, stained with sulfo-Cy3-azide
Method: Cells were treated with Alkyn-4-Thia-Palmitate, Alkyn-Palmitate, or control. The cells were then fixed, and incubated with sulfo-Cy3 azide to detect the trapped fatty acid analog.
This example illustrates in vitro analysis of fatty acid metabolism using the disclosed compounds. Cells were incubated with a fatty acid analog including a terminal alkyne group, fixed, and then treated with sulfo-Cy3-azide. The sulfo-Cy3-azide undergoes a click chemistry reaction (a 1,3-dipolar cycloaddition) with the terminal […] of the fatty acid homolog in the fixed cells to form a triazole ring linked to the fatty acid analog. The Cy3 moiety is then detected by fluorescence microscopy.
• 1. Place approximately 500 PC3 cells on coverslip in 24 well plates. • 2. Starve the cell with 250 μL of glucose free media overnight. • 3. Replace the media before the experiment with fresh 250 μL of glucose free media. • 4. Add alkyne fatty acid to the selected wells with coverslip and 1% BSA 10 μL in the control well and incubate at 37° C. for 1 or 2 h. • 5. After respective time wash the cells with 500 μL of 1% BSA for 3×5 min to remove extra fatty acid. • 6. Fix the cells with 300 μL of 4% paraformaldehyde (PFA) for 15 min • 7. Wash the cells once with PBS. • 8. […] Mount the coverslip and analyze by fluorescence microscopy. […]

Compound: [3H]C(CCCCCC)C([3H])CCCCCCCC(=O)O (centres unmarked) [^3H-palmitic acid]
- uptake in PCa cells compared with 2-DG (PCa cells): dominant uptake

Compound: O=C(O)CCSCCCC/C=C\CCCCCCCc1cn(CC[18F])nn1 [compound Va, (Z)-3-((13-(1-(2-[^18F]fluoroethyl)-1H-1,2,3-triazol-4-yl)tridec-5-en-1-yl)thio)propanoic acid]
- oxidation of the analog in heart tissue over time ([1]; fasted mice, Organic (unoxidized) vs Pellets and Aqueous (oxidized metabolites)): more of the fatty acid analog was oxidized
- background muscle uptake [2]: low
- in vivo defluorination relative to 18F-FTO ([2]; 0.5 hours postinjection): significantly less
- in vivo defluorination relative to FTO ([2]; 2 hours postinjection): significantly inhibited
- myocardial uptake relative to 18F-FTO ([2]; mice, postinjection): lower than the ^18F-FTO
- myocardial uptake, blockage with etomoxir [3]: can be blocked with etomoxir
- uptake in the tumor (SUV) (PC3 xenografts; 2-DG and FDG treated mice, 3.7 MBq via tail vein): 0.21 and 0.22
- uptake in the tumor (SUV) (PC3 xenografts; control group not treated with 2-DG and FDG): 0.15 and 0.18

Compound: CCOC(=O)[C@@]1(CCCCCCOc2ccc(Cl)cc2)CO1 [Etomoxir, reference compound]
- effect on extent of β-oxidation of the 18F-labeled oleate analog in heart tissue ([1]; fasted mice given compound Va): reduced the extent of the β-oxidation

Compound: O=C(O)CCSCCCC/C=C\CCCCCCCC[18F] [FTO, [^18F]Fluoro-4-thia-oleic acid, reference compound]
- background muscle uptake [2]: low

Compound: O=C[C@H](O)[C@@H](O)[C@H](O)[C@H](O)CO [^14C-glucose]
- incorporation into Ehrlich ascites tumor cells / cellular lipids [4]: 1%

Compound: ^14C-palmitate
- incorporation into Ehrlich ascites tumor cells / cellular lipids [4]: 40-50%

Compound: alkyn-4-thia-palmitate
- uptake by PCa cells (PC3 cells): avidly take up
